Consider 37 molecules from the supplement of paper PMC8967900.

Assay in all cases: selective drug sensitivity score (sDSS, relative to normal bone marrow) (sDSS (score)); higher = more potent and effective on the cell line relative to normal bone marrow cells
Holding throughout (settings): 72 h

For test [1], the system named is MOLT-16.
For test [2], the system named is RPMI-8402.
Test [3] has as its system PEER.
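Further: ALL cell lines in 384-well plates, five doses spanning 10,000-fold, each plate scaled between vehicle and 100 µmol/L benzalkonium chloride controls, sDSS an adapted area-under-curve metric.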

Take `CC(C)N(C[C@H]1O[C@@H](n2cnc3c(N)ncnc32)[C@H](O)[C@@H]1O)[C@H]1C[C@@H](CCc2nc3cc(C(C)(C)C)ccc3[nH]2)C1` [Pinometostat] (top concentration 1000 nM): the “selective drug sensitivity score” value in test [1], in test [2] and in test [3] was 0 in each case.

As to `O=C(CCNC(=O)c1ccc(OC(F)(F)F)cc1)N[C@@H]1CCCc2ccccc21` [ML390] (top concentration 50000 nM), the “selective drug sensitivity score” value in test [1] was 20.8; in test [2], 12.6; in test [3], 5.5.

Take `CCCC(CCC)C(=O)O` [Valproic_acid] (top concentration 1000000 nM): the “selective drug sensitivity score” value in test [1], in test [2] and in test [3] was 0 each time.

On to `O=c1sn(-c2cccc3ccccc23)c(=O)n1Cc1ccccc1` [Tideglusib] (top concentration 3000 nM), for which the “selective drug sensitivity score” value in test [1], in test [2] and in test [3] was -0.3 each time.

With `CCN(CC)CCOc1ccc(/C(=C(/Cl)c2ccccc2)c2ccccc2)cc1` [Clomifene] (top concentration 10000 nM), the results for the “selective drug sensitivity score” value in test [1], in test [2] and in test [3] were 0.92, 0.32 and 1.02, respectively.

For `COc1cc2c(NC3CCN(C(C)C)CC3)nc(N3CCC(F)(F)CC3)nc2cc1OCCCN1CCCC1` [UNC0642] (top concentration 10000 nM), the “selective drug sensitivity score” value in test [1] was -2.94; in test [2], -0.74; in test [3] it was -0.74.

As to `CCCc1cc(C)[nH]c(=O)c1CNC(=O)c1cc(-c2ccnc(N3CCN(C)CC3)c2)cc2c1cnn2C(C)C` [GSK343] (top concentration 1000 nM), the “selective drug sensitivity score” value in test [1], in test [2] and in test [3] was 0 each time.

Take `COc1ncc(-c2ccc3nccc(-c4ccnnc4)c3c2)cc1NS(=O)(=O)c1ccc(F)cc1F` [Omipalisib] (top concentration 1000 nM): the entries for the “selective drug sensitivity score” value in test [1], in test [2] and in test [3] were 10, 10.9 and -3, respectively.

Regarding `Cc1ccc(=O)n(-c2ccccc2)c1` [Pirfenidone] (top concentration 10000 nM), the “selective drug sensitivity score” value in test [1], in test [2] and in test [3] was 0 each time.

On to `CNC(=O)c1cc(COc2nnc(Nc3ccc(Cl)cc3)c3ccoc23)ccn1` [Telatinib] (top concentration 10000 nM), for which the “selective drug sensitivity score” value in test [1], in test [2] and in test [3] was 0 each time.

Consider `O=C(NC[C@H](O)CN1CCc2ccccc2C1)c1cc(NC2COC2)ncn1` (top concentration 10000 nM), for which the entries for the “selective drug sensitivity score” value in test [1], in test [2] and in test [3] were 1.54, -0.06 and -0.06, respectively.

Turning to `Cc1cc(Nc2cc(N3CCN(C)CC3)nc(Sc3ccc(NC(=O)C4CC4)cc3)n2)n[nH]1` [Tozasertib] (top concentration 10000 nM), the “selective drug sensitivity score” value in test [1] is 22.7; in test [2], 4.56; in test [3] it was 22.6.

As for `Cc1cnc(-c2ccccc2C(C)C)nc1NCc1ccc(-n2ccnn2)cc1` [ML323] (top concentration 10000 nM), the “selective drug sensitivity score” value in test [1] was 3.04; in test [2], 3.44; in test [3], 4.24.

In the case of `NS(=O)(=O)NCCNc1nonc1/C(=N/O)Nc1ccc(F)c(Br)c1` [Epacadostat] (top concentration 10000 nM), the “selective drug sensitivity score” value in test [1] is -0.06; in test [2], 0.54; in test [3] it was 0.14.

Take `FC(F)(F)c1ccc(/C=C/c2nc(COc3ccc(CCCCn4ccnn4)cc3)co2)cc1` [Mubritinib] (top concentration 1000 nM): the “selective drug sensitivity score” value in test [1] came to 18.6; in test [2], 22.5; in test [3], 21.7.

Take `CCOc1ccccc1-n1c(C(C)N2CCN(C(=O)COc3ccc(Cl)cc3)CC2)nc2ccccc2c1=O` (stereo unspecified) [Erastin] (top concentration 10000 nM): the “selective drug sensitivity score” value was 23 in test [1], -5.96 in test [2] and 7.94 in test [3].

On to `Cn1cc(-c2cnn3c(N)c(Br)c([C@@H]4CCCNC4)nc23)cn1` [MK-8776] (top concentration 2500 nM), for which the “selective drug sensitivity score” value in test [1] was 1.44; in test [2], 1.44; in test [3], -0.26.

In the case of `N#Cc1ccc(C(c2ccc(C#N)cc2)n2cncn2)cc1` [Letrozole] (top concentration 10000 nM), the “selective drug sensitivity score” value in test [1], in test [2] and in test [3] was -0.04 throughout.

Take `CC[C@@H]1C(=O)N(C)c2cnc(Nc3ccc(C(=O)NC4CCN(C)CC4)cc3OC)nc2N1C1CCCC1` [BI-2536] (top concentration 1000 nM): the “selective drug sensitivity score” value in test [1] is 9.04; in test [2] it was 22.4; in test [3], 20.8.

For the molecule `CNS(=O)(=O)Nc1nccc(Cc2c(C)c3ccc(Oc4ncccn4)cc3oc2=O)c1F` (top concentration 1000 nM), the “selective drug sensitivity score” value was found to be 1.42 in test [1], 0.12 in test [2] and 0.22 in test [3].

On to `CO[C@@H](C(=O)N1Cc2[nH]nc(NC(=O)c3ccc(N4CCN(C)CC4)cc3)c2C1)c1ccccc1` [Danusertib] (top concentration 10000 nM), for which the “selective drug sensitivity score” value in test [1] was 22.4; in test [2] it was 6.54; in test [3], 21.6.

As for `CC(C)(O)CNc1nc(Nc2ccnc(C(F)(F)F)c2)nc(-c2cccc(C(F)(F)F)n2)n1` [Enasidenib] (top concentration 10000 nM), the “selective drug sensitivity score” value in test [1] was found to be 0.1; in test [2], 0.4; in test [3], 0.6.

Turning to `Cn1cc(C2=C(c3cn(C4CCN(Cc5ccccn5)CC4)c4ccccc34)C(=O)NC2=O)c2ccccc21` [Enzastaurin] (top concentration 10000 nM), the figures for the “selective drug sensitivity score” value in test [1], in test [2] and in test [3] were 4.66, 5.86 and 6.66, respectively.

As to `CN1CCN(c2ccc(C(=O)Nc3n[nH]c4ccc(Cc5cc(F)cc(F)c5)cc34)c(NC3CCOCC3)c2)CC1` [Entrectinib] (top concentration 1000 nM), the figures for the “selective drug sensitivity score” value in test [1], in test [2] and in test [3] were -1.2, -1.2 and 0.9, respectively.

`CN1CCN(c2ccc3nc(-c4c(N)c5c(F)cccc5[nH]c4=O)[nH]c3c2)CC1` [Dovitinib] (top concentration 10000 nM): the “selective drug sensitivity score” value is -0.14 in test [1], -0.14 in test [2] and 0.66 in test [3].

For `CN(C)CCCOc1ccc(-c2ccc3ncc4c(c3c2)n(C2CCOCC2)c(=O)n4C)cn1` [AZD0156] (top concentration 1000 nM), the results for the “selective drug sensitivity score” value in test [1], in test [2] and in test [3] were 0.54, 0.14 and -0.06, respectively.

Consider `COc1cc2c(cc1OC(C)C)[C@H](c1ccc(Cl)cc1)N(c1ccc(N(C)C[C@H]3CC[C@H](N4CCN(C)C(=O)C4)CC3)cc1)C(=O)C2` [NVP-CGM097] (top concentration 25000 nM), for which the entries for the “selective drug sensitivity score” value in test [1], in test [2] and in test [3] were 10.4, -4.64 and -2.14, respectively.

With `CC[C@H](NC(=O)[C@H](C)NC)C(=O)N1C[C@@H](O)C[C@H]1Cc1c(-c2[nH]c3cc(F)ccc3c2C[C@@H]2C[C@H](O)CN2C(=O)[C@H](CC)NC(=O)[C@H](C)NC)[nH]c2cc(F)ccc12` [Birinapant] (top concentration 1000 nM), the results for the “selective drug sensitivity score” value in test [1], in test [2] and in test [3] were -1.7, -3.2 and -4.4, respectively.

For `CCc1cncnc1N1CCN(Cc2nc3cc(C(F)(F)F)ccc3[nH]2)CC1` (top concentration 10000 nM), the “selective drug sensitivity score” value in test [1] amounted to 4.86; in test [2], 5.96; in test [3], 4.56.

Take `N#Cc1ccc2[nH]c(O)c(-c3ccc(CN4CCOCC4)cn3)c2c1` [AZD-1080] (top concentration 10000 nM): the “selective drug sensitivity score” value in test [1] was 0.38; in test [2], -0.02; in test [3], -0.02.

`CC[C@@](C)(Nc1ccnc(-c2c[nH]c3ncccc23)n1)C(=O)NCC(F)(F)F` [Decernotinib] (top concentration 10000 nM): the entries for the “selective drug sensitivity score” value in test [1], in test [2] and in test [3] were -3.94, -3.44 and -3.84, respectively.

For the molecule `CCNCCS(=O)(=O)NC[C@@]1(c2ccccc2)SC(NC(=O)C(C)(C)C)=NN1C(=O)C(C)(C)C` [Litronesib] (top concentration 1000 nM), the “selective drug sensitivity score” value in test [1] is 20.2; in test [2] it was 18.7; in test [3], 21.4.

On to `CN(C)C(=O)c1cc2cnc(Nc3ccc(N4CCNCC4)cn3)nc2n1C1CCCC1` [Ribociclib] (top concentration 10000 nM), for which the “selective drug sensitivity score” value came out at 4.88 in test [1], 2.98 in test [2] and 3.18 in test [3].

Consider `c1cc(CN2CCCNCCNCCCNCC2)ccc1CN1CCCNCCNCCCNCC1` [Plerixafor] (top concentration 10000 nM), for which the “selective drug sensitivity score” value in test [1], in test [2] and in test [3] was 0 throughout.

Regarding `O=C(c1ccc(OCCN2CCCCC2)cc1)c1c(-c2ccc(O)cc2)sc2cc(O)ccc12` [Raloxifene] (top concentration 10000 nM), the “selective drug sensitivity score” value in test [1] was found to be 1.02; in test [2], 1.92; in test [3], 0.82.

Consider `O=c1[nH]c(=O)n([C@H]2C[C@H](O)[C@@H](CO)O2)cc1F` [Floxuridine] (top concentration 10000 nM), for which the figures for the “selective drug sensitivity score” value in test [1], in test [2] and in test [3] were 32.8, 26 and 14.2, respectively.

For the molecule `Nc1nc(Cl)nc2c1ncn2[C@H]1C[C@H](O)[C@@H](CO)O1` [Cladribine] (top concentration 1000 nM), the entries for the “selective drug sensitivity score” value in test [1], in test [2] and in test [3] were 1.06, -4.74 and -12.2, respectively.
